Source: patent publication US20040116420A1 (priority 2001, published 2004)

Experiments:
VZV = experiment: Antiviral activity 2, plaque formation in HEL cells; format: cell-based; conditions: Human alphaherpesvirus 3, 72 h, 3 days
Protocol: An Assay Method for Antiviral Activity 2
The HEL cells were sowed on a 48-well plate and then cultured overnight. The culture supernatant was removed, and 100 μl of 2% FBS-DMEM containing 40 Plaque-forming units of HSV-1, HSV-2, VZV, or CMV was added. A viral solution Was removed 1 hour later, and 500 μl of 2% FBS-DMEM containing 0.5% methylcellulose comprising 50, 25, 12.5, 6.3, 3.2, or 1.6 μM of the test compound was added. In this case, a substance to which 2% FBS-DMEM containing 0.5% methylcellulose not comprising any test compound had been added was designated as a control. In the case of HSV-1, HSV-2, or VZV, incubation was carried out in the presence of 5% CO2 at 37° C. for 3 days. In the case of CMV, incubation was carried out under the same conditions for 14 days. After they were immobilized on formalin and stained with bromophenol blue, the amount of plaque formed was counted, and the ratio of plaque formation of the drug-containing reaction system relative to the control was determined. The concentration of the drug with which the ratio of plaque formation reaches 50% was calculated and determined to be IC50. Concerning HSV-1, an aciclovir-resistant thymidine kinase variant and a DNA polymerase variant were examined in addition to a general aciclovir-sensitive strain.

HSV-1 = experiment: Antiviral activity, HSV-1 in Vero cells, plaque method; format: cell-based; conditions: Human alphaherpesvirus 1, 20 hours, 90% inhibition of plaque formation
Outline: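 HSV-1 (50,000 pfu in 2% FBS-DMEM) was added to Vero cells and removed, then the compound was applied in 2% FBS-DMEM for 20 h at 37° C, 5% CO2. After a freeze-thaw, virus yield in the medium was titred by plaque assay. EC90 is the concentration giving 90% plaque reduction versus the compound-free control.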

HSV-1 protease = target: T1, HSV-1 protease (Human herpesvirus 1, UniProt P10210); experiment: Enzymatic assay for HSV-1 protease (assembly) inhibitor, fluorescence polarization; format: biochemical; conditions: read-out: HSV-1 Enzyme inhibition IC50
T1 construct: 6xHis (N); made in house; host or cells: baculovirus expression system
T1 sequence (P10210 1-247): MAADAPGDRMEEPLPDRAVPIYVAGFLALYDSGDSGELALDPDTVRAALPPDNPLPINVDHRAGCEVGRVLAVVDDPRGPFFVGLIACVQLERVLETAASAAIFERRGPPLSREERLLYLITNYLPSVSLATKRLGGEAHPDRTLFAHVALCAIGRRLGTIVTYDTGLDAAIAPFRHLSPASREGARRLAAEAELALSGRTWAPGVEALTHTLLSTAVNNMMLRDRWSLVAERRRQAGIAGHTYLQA
Outline: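 His6-tagged HSV-1 UL26 protease, baculovirus-expressed, preincubated 30 min at RT with compound in 1 M citrate/phosphate buffer pH 7.4 with 20% glycerol and 2 mM TCEP. A biotin-HTYLQA*SERFRIK-DTAF substrate was then cleaved for 60 min at RT, stopped with avidin, and read by fluorescence polarization versus no-inhibitor control.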

Vero cells = experiment: Cytotoxicity, Vero cells, Alamar Blue; format: cell-based; conditions: 25 μM, 20 hours
Outline: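 Overnight-seeded Vero cells were exposed to 25 μM compound in 2% FBS-DMEM for 20 h at 37 °C, 5% CO2. Alamar Blue was then added for about 6 h. The absorbance ratio relative to compound-free control gave the living-cell ratio.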

Cc1c(NC(=O)OC(C)(C)C)ccc2nc(NC(C)(C)C(=O)N(C)CCc3ccccn3)oc(=O)c12 [Compound No.18, (5-methyl-2-{1-methyl-1-[methyl-(2-pyridin-2-yl-ethyl)-carbamoyl]-ethylamino}-4-oxo-4H-benzo[d][1,3]oxazin-6-yl)-carbamic Acid Tert-Butyl Ester]
IC50 (VZV): 25 µM | EC90 (HSV-1): 8.4 µM | IC50 (HSV-1 protease): 0.4 µM | Cell viability (% of control) (Vero cells): 101.0%
